# Measured values published in ChEMBL document CHEMBL1201861, “Genomics of Drug Sensitity in Cancer screening data, Wellcome Trust Sanger Institute”.
# Tests used:
# Test in all cases: cells
# CP66-MEL = type: functional, cell-based, Homo sapiens; conditions: Homo sapiens, CP66-MEL;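 also: growth inhibition of CP66-MEL cells determined in a cell viability assay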
# Description: SANGER: Inhibition of human CP66-MEL cell growth in a cell viability assay.
# D283 Med = type: functional, cell-based, Homo sapiens; conditions: Homo sapiens, D283 Med
# Description: SANGER: Inhibition of human D-283MED cell growth in a cell viability assay.
# DSH1 = type: functional, cell-based, Homo sapiens; conditions: Homo sapiens, DSH1;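 also: growth inhibition of human DSH1 cells, measured with a cell viability readout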
# Description: SANGER: Inhibition of human DSH1 cell growth in a cell viability assay.
# ES3 = type: functional, cell-based, Homo sapiens; conditions: Homo sapiens, ES3;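 also: growth inhibition of ES3 cells, read out with a cell viability assay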
# Description: SANGER: Inhibition of human ES3 cell growth in a cell viability assay.
# ES8 = type: functional, cell-based, Homo sapiens; conditions: Homo sapiens, ES8;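 also: growth inhibition of human ES8 cells, read out with a cell viability assay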
# Description: SANGER: Inhibition of human ES8 cell growth in a cell viability assay.
# EW-11 = type: functional, cell-based, Homo sapiens; conditions: Homo sapiens, EW-11;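 also: growth inhibition of human EW-11 cells, measured with a cell viability assay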
# Description: SANGER: Inhibition of human EW-11 cell growth in a cell viability assay.
# EW-24 = type: functional, cell-based, Homo sapiens; conditions: Homo sapiens, EW-24;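 also: human EW-24 cancer cell line, growth inhibition read out via a cell viability assay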
# Description: SANGER: Inhibition of human EW-24 cell growth in a cell viability assay.
# EW-3 = type: functional, cell-based, Homo sapiens; conditions: Homo sapiens, EW-3;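 also: cell viability assay read-out, IC50 reflects inhibition of growth of the EW-3 cells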
# Description: SANGER: Inhibition of human EW-3 cell growth in a cell viability assay.
# GB-1 = type: functional, cell-based, Homo sapiens; conditions: Homo sapiens, GB-1;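 also: growth of GB-1 cells judged by a viability assay, IC50 marks the concentration inhibiting growth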
# Description: SANGER: Inhibition of human GB-1 cell growth in a cell viability assay.
# GR-ST = type: functional, cell-based, Homo sapiens; conditions: Homo sapiens, GR-ST
# Description: SANGER: Inhibition of human GR-ST cell growth in a cell viability assay.
# HCC2218 = type: functional, cell-based, Homo sapiens; conditions: Homo sapiens, HCC2218;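 also: cell viability assay read-out, with IC50 given as the concentration that inhibits growth of the cell line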
# Description: SANGER: Inhibition of human HCC2218 cell growth in a cell viability assay.
# HCE-T = type: functional, cell-based, Homo sapiens; conditions: Homo sapiens, HCE-T;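 also: cell viability assay read-out, reporting inhibition of HCE-T cell growth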
# Description: SANGER: Inhibition of human HCE-T cell growth in a cell viability assay.
# HEL = type: functional, cell-based, Homo sapiens; conditions: Homo sapiens, HEL;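 also: growth inhibition of HEL cells, read out with a cell viability assay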
# Description: SANGER: Inhibition of human HEL cell growth in a cell viability assay.
# IA-LM = type: functional, cell-based, Homo sapiens; conditions: Homo sapiens, IA-LM;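 also: cell viability assay measuring growth inhibition of human IA-LM cells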
# Description: SANGER: Inhibition of human IA-LM cell growth in a cell viability assay.
# IST-MEL1 = type: functional, cell-based, Homo sapiens; conditions: Homo sapiens, IST-MEL1;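 also: growth inhibition of the cell line, read out with a cell viability assay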
# Description: SANGER: Inhibition of human IST-MEL1 cell growth in a cell viability assay.
# JVM-3 = type: functional, cell-based, Homo sapiens; conditions: Homo sapiens, JVM-3;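 also: growth inhibition of human JVM-3 cells, read out with a cell viability assay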
# Description: SANGER: Inhibition of human JVM-3 cell growth in a cell viability assay.
# KARPAS-45 = type: functional, cell-based, Homo sapiens; conditions: Homo sapiens, KARPAS-45;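 also: inhibition of cell line growth, read out through a viability assay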
# Description: SANGER: Inhibition of human KARPAS-45 cell growth in a cell viability assay.
# KM12 = type: functional, cell-based, Homo sapiens; conditions: Homo sapiens, KM12;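 also: KM12 cell growth inhibition, read out with a cell viability assay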
# Description: SANGER: Inhibition of human KM12 cell growth in a cell viability assay.
# KNS-81-FD = type: functional, cell-based, Homo sapiens; conditions: Homo sapiens, KNS-81-FD;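 also: growth inhibition of KNS-81-FD cells, read out with a cell viability assay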
# Description: SANGER: Inhibition of human KNS-81-FD cell growth in a cell viability assay.
# LC-2-ad = type: functional, cell-based, Homo sapiens; conditions: Homo sapiens, LC-2-ad;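 also: growth inhibition of human LC-2-ad cells, read out with a cell viability assay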
# Description: SANGER: Inhibition of human LC-2-ad cell growth in a cell viability assay.
# LNCaP-Clone-FGC = type: functional, cell-based, Homo sapiens; conditions: Homo sapiens, LNCaP-Clone-FGC
# Description: SANGER: Inhibition of human LNCaP-Clone-FGC cell growth in a cell viability assay.
# LU-134-A = type: functional, cell-based, Homo sapiens; conditions: Homo sapiens, LU-134-A
# Description: SANGER: Inhibition of human LU-134-A cell growth in a cell viability assay.
# MC116 = type: functional, cell-based, Homo sapiens; conditions: Homo sapiens, MC116;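 also: growth inhibition of MC116 cells, read out with a cell viability assay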
# Description: SANGER: Inhibition of human MC116 cell growth in a cell viability assay.
# MEG-01 = type: functional, cell-based, Homo sapiens; conditions: Homo sapiens, MEG-01;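 also: growth inhibition of MEG-01 cells, read out by a cell viability assay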
# Description: SANGER: Inhibition of human MEG-01 cell growth in a cell viability assay.
# NCI-H23 = type: functional, cell-based, Homo sapiens; conditions: Homo sapiens, NCI-H23;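 also: cell viability assay measuring growth inhibition of NCI-H23 cells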
# Description: SANGER: Inhibition of human NCI-H23 cell growth in a cell viability assay.
# NCI-H526 = type: functional, cell-based, Homo sapiens; conditions: Homo sapiens, NCI-H526;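 also: growth inhibition of the human NCI-H526 cell line, measured by a cell viability assay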
# Description: SANGER: Inhibition of human NCI-H526 cell growth in a cell viability assay.
# NCI-H747 = type: functional, cell-based, Homo sapiens; conditions: Homo sapiens, NCI-H747;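 also: growth inhibition of human NCI-H747 cells, read out by a cell viability assay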
# Description: SANGER: Inhibition of human NCI-H747 cell growth in a cell viability assay.
# NCI-N87 = type: functional, cell-based, Homo sapiens; conditions: Homo sapiens, NCI-N87;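 also: growth inhibition of human NCI-N87 cells, read out with a cell viability assay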
# Description: SANGER: Inhibition of human NCI-N87 cell growth in a cell viability assay.
# NKM-1 = type: functional, cell-based, Homo sapiens; conditions: Homo sapiens, NKM-1;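 also: growth inhibition of NKM-1 cells, read out with a cell viability assay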
# Description: SANGER: Inhibition of human NKM-1 cell growth in a cell viability assay.
# NOMO-1 = type: functional, cell-based, Homo sapiens; conditions: Homo sapiens, NOMO-1;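 also: growth inhibition of human NOMO-1 cells measured by a cell viability assay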
# Description: SANGER: Inhibition of human NOMO-1 cell growth in a cell viability assay.
# RH-1 = type: functional, cell-based, Homo sapiens; conditions: Homo sapiens, RH-1;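 also: growth inhibition of human RH-1 cells, read out with a cell viability assay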
# Description: SANGER: Inhibition of human RH-1 cell growth in a cell viability assay.
# SH-4 = type: functional, cell-based, Homo sapiens; conditions: Homo sapiens, SH-4;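 also: growth inhibition of SH-4 cells, read out with a cell viability assay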
# Description: SANGER: Inhibition of human SH-4 cell growth in a cell viability assay.
# SHP77 = type: functional, cell-based, Homo sapiens, SHP-77; conditions: Homo sapiens, SHP77;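 also: growth inhibition of human SHP-77 cells measured by a cell viability assay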
# Description: SANGER: Inhibition of human SHP-77 cell growth in a cell viability assay.
# SK-MEL-2 = type: functional, cell-based, Homo sapiens; conditions: Homo sapiens, SK-MEL-2;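 also: growth inhibition of human SK-MEL-2 cells measured with a cell viability assay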
# Description: SANGER: Inhibition of human SK-MEL-2 cell growth in a cell viability assay.
# SK-N-DZ = type: functional, cell-based, Homo sapiens; conditions: Homo sapiens, SK-N-DZ;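 also: growth inhibition of the cancer cell line, read out through a viability assay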
# Description: SANGER: Inhibition of human SK-N-DZ cell growth in a cell viability assay.
# SK-N-FI = type: functional, cell-based, Homo sapiens; conditions: Homo sapiens, SK-N-FI;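 also: cell viability assay measuring growth inhibition of human SK-N-FI cells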
# Description: SANGER: Inhibition of human SK-N-FI cell growth in a cell viability assay.
# SK-UT-1 = type: functional, cell-based, Homo sapiens; conditions: Homo sapiens, SK-UT-1;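 also: growth inhibition of SK-UT-1 cells, measured by a cell viability assay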
# Description: SANGER: Inhibition of human SK-UT-1 cell growth in a cell viability assay.
# SW 954 = type: functional, cell-based, Homo sapiens; conditions: Homo sapiens, SW 954;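 also: growth inhibition of SW954 human cancer cells, read out as cell viability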
# Description: SANGER: Inhibition of human SW954 cell growth in a cell viability assay.
# TE-1 = type: functional, cell-based, Homo sapiens; conditions: Homo sapiens, TE-1
# Description: SANGER: Inhibition of human TE-1 cell growth in a cell viability assay.
# A388 = type: functional, cell-based, Homo sapiens; conditions: Homo sapiens, A388;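 also: growth inhibition of human A388 cells, read out with a cell viability assay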
# Description: SANGER: Inhibition of human A388 cell growth in a cell viability assay.
# A4-Fuk = type: functional, cell-based, Homo sapiens; conditions: Homo sapiens, A4-Fuk;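 also: growth inhibition of A4-Fuk cells, read out by a cell viability assay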
# Description: SANGER: Inhibition of human A4-Fuk cell growth in a cell viability assay.
# A498 = type: functional, cell-based, Homo sapiens; conditions: Homo sapiens, A498;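 also: growth inhibition of human A498 cells, read out with a cell viability assay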
# Description: SANGER: Inhibition of human A498 cell growth in a cell viability assay.
# ACN = type: functional, cell-based, Homo sapiens; conditions: Homo sapiens, ACN;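 also: growth inhibition of the human ACN cell line, read out via cell viability testing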
# Description: SANGER: Inhibition of human ACN cell growth in a cell viability assay.
# BE-13 = type: functional, cell-based, Homo sapiens; conditions: Homo sapiens, BE-13;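 also: growth inhibition of human BE-13 cells, measured with a cell viability assay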
# Description: SANGER: Inhibition of human BE-13 cell growth in a cell viability assay.
# TE-12 = type: functional, cell-based, Homo sapiens; conditions: Homo sapiens, TE-12;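 also: growth inhibition of TE-12 cells, read out by a cell viability assay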
# Description: SANGER: Inhibition of human TE-12 cell growth in a cell viability assay.
# U-266 = type: functional, cell-based, Homo sapiens; conditions: Homo sapiens, U-266
# Description: SANGER: Inhibition of human U-266 cell growth in a cell viability assay.
# U-87 MG = type: functional, cell-based, Homo sapiens, U-87MG ATCC; conditions: Homo sapiens, U-87 MG;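 also: growth inhibition of the cells measured with a viability assay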
# Description: SANGER: Inhibition of human U-87-MG cell growth in a cell viability assay.
# CCRF-CEM = type: functional, cell-based, Homo sapiens; conditions: Homo sapiens, CCRF-CEM;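 also: inhibition of CCRF-CEM cell growth, measured by a cell viability assay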
# Description: SANGER: Inhibition of human CCRF-CEM cell growth in a cell viability assay.
# COLO-668 = type: functional, cell-based, Homo sapiens; conditions: Homo sapiens, COLO-668
# Description: SANGER: Inhibition of human COLO-668 cell growth in a cell viability assay.
smiles,measurement,setting,value
N#Cc1c(O)c2c(-c3ccc(-c4ccccc4O)cc3)csc2[nH]c1=O,IC50,CP66-MEL,> 1020 nM
same,IC50,D283 Med,386 nM
same,IC50,DSH1,> 1020 nM
same,IC50,ES3,> 1020 nM
same,IC50,ES8,> 1020 nM
same,IC50,EW-11,> 1020 nM
same,IC50,EW-24,> 1020 nM
same,IC50,EW-3,> 1020 nM
same,IC50,GB-1,> 1020 nM
same,IC50,GR-ST,218 nM
same,IC50,HCC2218,342 nM
same,IC50,HCE-T,> 1020 nM
same,IC50,HEL,107 nM
same,IC50,IA-LM,> 1020 nM
same,IC50,IST-MEL1,> 1020 nM
same,IC50,JVM-3,> 1020 nM
same,IC50,KARPAS-45,170 nM
same,IC50,KM12,32.1 nM
same,IC50,KNS-81-FD,> 1020 nM
same,IC50,LC-2-ad,> 1020 nM
same,IC50,LNCaP-Clone-FGC,547 nM
same,IC50,LU-134-A,231 nM
same,IC50,MC116,100 nM
same,IC50,MEG-01,269 nM
same,IC50,NCI-H23,> 1020 nM
same,IC50,NCI-H526,468 nM
same,IC50,NCI-H747,> 1020 nM
same,IC50,NCI-N87,> 1020 nM
same,IC50,NKM-1,> 1020 nM
same,IC50,NOMO-1,263 nM
same,IC50,RH-1,> 1020 nM
same,IC50,SH-4,> 1020 nM
same,IC50,SHP77,383 nM
same,IC50,SK-MEL-2,> 1020 nM
same,IC50,SK-N-DZ,802 nM
same,IC50,SK-N-FI,> 1020 nM
same,IC50,SK-UT-1,> 1020 nM
same,IC50,SW 954,> 1020 nM
same,IC50,TE-1,> 1020 nM
same,IC50,A388,> 1020 nM
same,IC50,A4-Fuk,> 1020 nM
same,IC50,A498,> 1020 nM
same,IC50,ACN,> 1020 nM
same,IC50,BE-13,> 1020 nM
same,IC50,TE-12,> 1020 nM
same,IC50,U-266,405 nM
same,IC50,U-87 MG,333 nM
same,IC50,CCRF-CEM,146 nM
same,IC50,COLO-668,> 1020 nM
